The source of these data is patent US20070178161A1, “Use of n-acetryl-d-glucosamine in treating and controlling non-specific inflammations caused by physical or chemical factors” (priority 2003, published 2007).

The test system of one series is burn models. As to the kind of experiment: Burn test. Type of series: in vivo, Wistar rats. Conditions: local application of solid powder, after 3 days, 10 rats per group (control: 2). An excerpt:
20 Wistar rats were randomly divided into two groups, i.e., control group and test group. The rats of both two groups were made as burn models by dressing gauze with hot distilled water. The rats of the control group were not treated, while the rats of the test group were locally treated by applying a solid powder of the compound of formula (I). After 3 days, 8 rats of the test group formed scab, while only 2 rats of the control group formed scab wherein liquor puris still accumulated below the scab.

The test system of series [1] is blunt torn thigh muscle tissue of hind limb. As to the kind of experiment: Blunt tearing tests of animals. The note with it: 1 ml, after 7 days. Type of series: in vivo, Kunming mice. The procedure:
30 Kunming mice were randomly divided into two groups, i.e., 10 mice in control group and 20 mice in test group. The mice of both two groups were treated by a blunt tearing method, wherein a non-specific injury occurred in blunt torn thigh muscle tissue of hind limb of mice. […] 10 mice of control group were normally fed, while the mice of test group were administered with an aqueous solution of N-acetyl-D-glucosamine having a concentration of 5% by weight in a dosage of 1 ml, wherein 10 mice were administered by intra-peritoneal injection, another 10 mice were administered by intramuscular injection. […] The pathological changes of the mice of control group continuously developed or maintained on the original basis, wherein 4 mice suffered paralysis of the injured limb, and another 4 mice had flex and stretch dysfunction.

Series [2] has as its system burned voluntary patients. As to the kind of experiment: Test for treatment of burn. Type of series: in vivo. The note with it: sterilized powder on wound surface for 3 consecutive days, 10 patients. From the text: In a collaborate project of the bum department of Third Military Medical University, a sterilized N-acetyl-D-glucosamine powder in a dose dependant upon wound surface area was applied to the wound surface of 10 burned voluntary patients for consecutive 3 days.

Series [3] deals with patients with cold injury. Briefly: Test for treatment of cold injury. Type of series: in vivo. Conditions: 10 wt % aqueous solution, local, 1 ml to 10 ml per day. As to the method: 20 Patients with different levels of cold injury were divided into a test group and a control group. The patients in the test group were locally treated with a 10 wt % N-acetyl-D-glucosamine aqueous solution in a dose from 1 ml to 10 ml per day according to symptoms and individual conditions.

For series [4] the following is noted: in vivo. An excerpt: The toxicological test of the compound of formula (I) includes: • 1. Acute toxicity test: including tests of oral administration, intravenous injection administration, and maximum limit amount for administration; • 2. Ames test; • 3. Micronucleus test of mouse bone marrow cell; • 4. Abnormality test of mouse sperm; • 5. Aberration test of mouse testis chromosome; • 6. Chronic lethal test; • 7. Sub-chronic toxicity (feed for 90 days) test; • 8. Traditional deformity-inducing test.

The test system of another series is Proteus Mirabilis. As to the kind of experiment: Promoting wave test (bio-wave model). The note with it: final concentration 0.5% in LB plate, 37° C., 9 hours. Type of series: cell-based.
Series [5] relates to patients with surgical trauma. As to the kind of experiment: Test for treatment of surgical trauma. Type of series: in vivo. The note with it: ointment 1 g/10 g in Vaseline, painted on wounds for 3 consecutive days, 8 patients. As to the method:
8 Patients with surgical trauma, and most of them were facial and forearm abrasion. An ointment with a concentration of 1 g/10 g was prepared by mixing N-acetyl-D-glucosamine and Vaseline, and was painted on wounded parts in a dose dependent upon the area of wound surface for consecutive 3 days.

The mark [6] stands for this setting: 5% aqueous solution, i.p. or i.m., 20 mice in test group (control: 4 of 10).

Consider `CC(=O)N[C@H]1C(O)O[C@H](CO)[C@@H](O)[C@@H]1O.Cl` (stereo partly drawn) [N-acetyl-D-glucosamine hydrochloride], for which the “rats of the test group that formed scab” value with burn models was 6.
Regarding `CC(=O)N[C@H]1C(O)O[C@H](CO)[C@@H](O)[C@@H]1O.O=S(=O)(O)O` (stereo partly drawn) [N-acetyl-D-glucosamine sulfate], in series [1] (setting [6]), the “mice that suffered paralysis of the injured limb” value was 2; the “mice with flex and stretch dysfunction” value was 2.
Regarding `CC(=O)N[C@H]1C(O)O[C@H](CO)[C@@H](O)[C@@H]1O` (stereo partly drawn) [compound of formula (I), N-acetyl-D-glucosamine], the “wound symptoms (edema, blood vessels, secretion)” value in series [2] is “edema was alleviated, blood vessel shrank, and secretion was reduced”. For the same molecule, the “rate of cambium growth toward the center of the wound” value in series [2] (from the 4th day) is recorded as 1-2 mm per day. Further, the “rats of the test group that formed scab” value in the series with burn models is 8. Also, the “mice that suffered paralysis of the injured limb” value in series [1] (setting [6]) is “one”. Also, in series [1] (5% by weight aqueous solution, intra-peritoneal or intramuscular injection, 20 mice), the “movement of injured limb / mobility of test group” value was “could free-run”. For the same molecule, in series [3], the “recovery from cold injury” value is “early recovery, and then inflammation and edema were eliminated”. Besides, in series [4], the “dosage at which acute toxicosis reaction had not appeared” value is “more than 2 g/kg”. Besides, the “bio-wave pattern of colony (concentric rings)” value with Proteus Mirabilis is reported as “many fine waves on each ring”. Further, in series [5], the “healing of facial abrasion” value is on record as “rapidly healed” and the scar formation entry is listed as “no scar was found on face”.
